Laboratory results reported in ChEMBL document CHEMBL2202961, “Antiproliferative activity of salinomycin and its derivatives” (Bioorg Med Chem Lett, 2012).
Converted amounts (≈) assume the structure as drawn.

Assays:
BALB/3T3 [1] = experiment: Selectivity index, ratio of IC50 for mouse BALB/3T3 cells to IC50 doxorubicin-resistant human LoVo/DX cells
LoVo [2] = experiment: Selectivity index, ratio of IC50 for mouse BALB/3T3 cells to IC50 for human LoVo cells; type: functional
BALB/3T3 [3] = experiment: Selectivity index, ratio of IC50 for mouse BALB/3T3 cells to IC50 for human vincristine-resistant human HL60/Vinc cells; type: functional
BALB/3T3 [4] = experiment: Cytotoxicity against mouse BALB/3T3 cells incubated for 72 hrs by MTT assay; type: cell-based; details: BALB/3T3, 72 h
BALB/3T3 [5] = experiment: Selectivity index, ratio of IC50 for mouse BALB/3T3 cells to IC50 for human HL60 cells; type: functional
LoVo [6] = experiment: Resistance index, ratio of IC50 for doxorubicin-resistant human LoVo/DX cells to IC50 for parental human LoVo cells; type: functional
[7] = Cytotoxicity against doxorubicin-resistant human LoVo/DX cells incubated for 72 hrs by MTT assay; type: functional, cell-based
HL-60 [8] = experiment: Resistance index, ratio of IC50 for vincristine-resistant human HL60/Vinc cells to IC50 for parental human HL60 cells; type: functional
LoVo [9] = experiment: Cytotoxicity against human LoVo cells incubated for 72 hrs by MTT assay; type: functional, cell-based
[10] = Cytotoxicity against vincristine-resistant human HL60/Vinc cells incubated for 72 hrs by MTT assay; type: functional, cell-based
HL-60 [11] = experiment: Cytotoxicity against human HL60 cells incubated for 72 hrs by MTT assay; details: HL-60, 72 h
Staphylococcus aureus = experiment: Antimicrobial activity against methicillin-resistant Staphylococcus aureus; type: functional

Row | SMILES | Ratio IC50 (BALB/3T3 [1]) | Ratio IC50 (LoVo [2]) | Ratio IC50 (BALB/3T3 [3]) | IC50 (BALB/3T3 [4]) [µM] | Ratio IC50 (BALB/3T3 [5]) | Ratio IC50 (LoVo [6]) | IC50 [7] [µM] | Ratio IC50 (HL-60 [8]) | IC50 (LoVo [9]) [µM] | IC50 [10] [µM] | IC50 (HL-60 [11]) [µM] | MIC (Staphylococcus aureus) [µg/mL]
1 | CC[C@@H](C(=O)[C@@H](C)[C@@H](O)[C@H](C)[C@@H]1O[C@@H]([C@@H](CC)C(=O)NCc2ccccc2)CC[C@@H]1C)[C@H]1O[C@]2(C=C[C@@H](O)[C@]3(CC[C@@](C)([C@H]4CC[C@](O)(CC)[C@H](C)O4)O3)O2)[C@H](C)C[C@@H]1C | 2.19 | 1.81 | 1.21 | 7.26 | 2 | 0.82 | 3.31 | 1.66 | 4.02 | 6.02 | 3.63 | 
2 | CC[C@@H](C(=O)[C@@H](C)[C@@H](O)[C@H](C)[C@@H]1O[C@@H]([C@@H](CC)C(=O)O)CC[C@@H]1C)[C@H]1O[C@]2(C=C[C@@H](O)[C@]3(CC[C@@](C)([C@H]4CC[C@](O)(CC)[C@H](C)O4)O3)O2)[C@H](C)C[C@@H]1C [SALINOMYCIN] | 4.51 | 25.3 | 8.16 | 28.1 | 63.81 | 5.61 | 6.23 | 7.82 | 1.11 | 3.44 | 0.44 | 
3 | CC[C@@H](C(=O)[C@@H](C)[C@@H](O)[C@H](C)[C@@H]1O[C@@H]([C@@H](CC)C(=O)On2nnc3ccccc32)CC[C@@H]1C)[C@H]1O[C@]2(C=C[C@@H](O)[C@]3(CC[C@@](C)([C@H]4CC[C@](O)(CC)[C@H](C)O4)O3)O2)[C@H](C)C[C@@H]1C | 4.83 | 7.76 | 6.08 | 31.9 | 17.33 | 1.61 | 6.61 | 2.85 | 4.11 | 5.25 | 1.84 | 1 (≈ 1.15 µM)
4 | COc1cccc2c1C(=O)c1c(O)c3c(c(O)c1C2=O)C[C@@](O)(C(=O)CO)C[C@@H]3O[C@H]1C[C@H](N)[C@H](O)[C@H](C)O1 [DOXORUBICIN] |  |  |  | 1.91 |  |  | 12.1 |  | 0.38 | 0.91 |  | 
5 | CCCCNC(=O)[C@H](CC)[C@H]1CC[C@H](C)[C@H]([C@@H](C)[C@H](O)[C@H](C)C(=O)[C@H](CC)[C@H]2O[C@]3(C=C[C@@H](O)[C@]4(CC[C@@](C)([C@H]5CC[C@](O)(CC)[C@H](C)O5)O4)O3)[C@H](C)C[C@@H]2C)O1 | 2.56 | 2.03 | 1.55 | 8.21 | 2.12 | 0.81 | 3.26 | 1.37 | 4.04 | 5.31 | 3.88 | 
6 | CC[C@@H](C(=O)[C@@H](C)[C@@H](O)[C@H](C)[C@@H]1O[C@@H]([C@@H](CC)C(=O)NCCc2c[nH]c3ccccc23)CC[C@@H]1C)[C@H]1O[C@]2(C=C[C@@H](O)[C@]3(CC[C@@](C)([C@H]4CC[C@](O)(CC)[C@H](C)O4)O3)O2)[C@H](C)C[C@@H]1C | 3.59 | 2.9 | 2.31 | 9.98 | 2.84 | 0.81 | 2.78 | 1.22 | 3.45 | 4.31 | 3.52 | 
7 | CC[C@@H](C(=O)[C@@H](C)[C@@H](O)[C@H](C)[C@@H]1O[C@@H]([C@@H](CC)C(=O)Nc2ccc3c(c2)OCCOCCOCCOCCO3)CC[C@@H]1C)[C@H]1O[C@]2(C=C[C@@H](O)[C@]3(CC[C@@](C)([C@H]4CC[C@](O)(CC)[C@H](C)O4)O3)O2)[C@H](C)C[C@@H]1C | 4.51 | 4.08 | 3.71 | 25.5 | 8.27 | 0.91 | 5.65 | 2.23 | 6.24 | 6.87 | 3.08 | 
8 | CC[C@@H](C(=O)[C@@H](C)[C@@H](O)[C@H](C)[C@@H]1O[C@@H]([C@@H](CC)C(=O)Nc2ccccc2)CC[C@@H]1C)[C@H]1O[C@]2(C=C[C@@H](O)[C@]3(CC[C@@](C)([C@H]4CC[C@](O)(CC)[C@H](C)O4)O3)O2)[C@H](C)C[C@@H]1C | 2.21 | 1.72 | 1.64 | 7.08 | 1.86 | 0.78 | 3.21 | 1.14 | 4.11 | 4.31 | 3.79 | 
9 | CC[C@@H](C(=O)[C@@H](C)[C@@H](O)[C@H](C)[C@@H]1O[C@@H]([C@@H](CC)C(=O)NCCOCCOCCOC)CC[C@@H]1C)[C@H]1O[C@]2(C=C[C@@H](O)[C@]3(CC[C@@](C)([C@H]4CC[C@](O)(CC)[C@H](C)O4)O3)O2)[C@H](C)C[C@@H]1C | 1.28 | 1.31 | 1.34 | 39.1 | 1.57 | 1.03 | 30.6 | 1.17 | 29.9 | 29.1 | 24.9 | 
10 | CC[C@@H](C(=O)[C@@H](C)[C@@H](O)[C@H](C)[C@@H]1O[C@@H]([C@@H](CC)C(=O)NCCCN2CCOCC2)CC[C@@H]1C)[C@H]1O[C@]2(C=C[C@@H](O)[C@]3(CC[C@@](C)([C@H]4CC[C@](O)(CC)[C@H](C)O4)O3)O2)[C@H](C)C[C@@H]1C | 1.78 | 1.92 | 1.23 | 34.7 | 6.16 | 1.08 | 19.4 | 4.99 | 18 | 28.1 | 5.63 | 
